The record followed here is patent US20210323950A1, “HERBICIDALLY ACTIVE BICYCLIC BENZOYLPYRAZOLES” (Bayer Aktiengesellschaft, priority 2018, published 2021).

Assay type in all cases: in vivo
The test system of experiment [1] is Veronica persica (VERPE). Description: Pre-emergence herbicidal action against VERPE. As to conditions: scored visually after about 3 weeks vs untreated controls. The gist of the method: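 Weed seeds were sown in pots and covered with soil. Pots were kept in the greenhouse and damage was scored visually after about 3 weeks as percent versus untreated controls (100% = plants died).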

In experiment [2] the test system is Setaria viridis (SETVI). Description: Post-emergence herbicidal action against SETVI. As to conditions: 20 g/ha, post-emergence at one-leaf stage, rated visually after about 3 weeks vs untreated controls. The method, boiled down:
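Monocot and dicot weeds grown in sandy loam in greenhouse, sprayed post-emergence at one-leaf stage (2–3 weeks after sowing) with WP or EC formulations in water plus 0.5% additive at […] (converted). Visual rating after about 3 weeks versus untreated controls; 100% = plants dead, 0% = like control.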

In a further experiment the test system is Viola tricolor (VIOTR). Kind of experiment: Pre-emergence herbicidal action against VIOTR. Particulars: scored visually after about 3 weeks vs untreated controls. The gist of the method:
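Seeds were sown in pots and covered with soil. After ~3 weeks in the greenhouse, effect was scored visually versus untreated controls (100% = plants dead, 0% = like control).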

Experiment [3] concerns Setaria viridis (SETVI). Kind of experiment: Pre-emergence herbicidal action against SETVI. Particulars: scored visually after about 3 weeks vs untreated controls.
The test system of experiment [4] is Stellaria media (STEME). Kind of experiment: Post-emergence herbicidal action against STEME. As to conditions: 20 g/ha, post-emergence at one-leaf stage, rated visually after about 3 weeks vs untreated controls.
The test system of experiment [5] is Stellaria media (STEME). Description: Pre-emergence herbicidal action against STEME. Particulars: scored visually after about 3 weeks vs untreated controls. The gist of the method: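 Weed seeds are sown in pots under soil, and WP or EC formulations are applied pre-emergence to the soil surface as an aqueous suspension or emulsion with 0.5% additive. After about 3 weeks in the greenhouse, effect is scored visually as % versus untreated controls (100% = plants dead, 0% = like control).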

Experiment [6] relates to Veronica persica (VERPE). Description: Post-emergence herbicidal action against VERPE. As to conditions: 20 g/ha, post-emergence at one-leaf stage, rated visually after about 3 weeks vs untreated controls. The method, then: VERPE: Veronica persica 2. Post-Emergence Herbicidal Action and Crop Plant Compatibility Seeds of monocotyledonous and dicotyledonous weeds and crop plants are placed in sandy loam in plastic or organic planting pots, covered with soil and cultivated in a greenhouse under controlled growth conditions. 2 to 3 weeks after sowing, the test plants are treated at the one-leaf stage. The compounds of the invention, formulated in the form of wettable powders (WP) or as emulsion concentrates (EC), are then sprayed onto the green parts of the plants as aqueous suspension or emulsion with addition of 0.5% additive at a water application rate of […] (converted). After the test plants had been kept in the greenhouse under optimum growth conditions for about 3 weeks, the activity of the preparations is rated visually in comparison to untreated controls. The tables below show the herbicidal activity of numerous compounds according to the invention against important harmful plants. For example, 100% activity=the plants have died, 0% activity=like control plants.

On to `Cn1ncc(C(=O)c2ccc(C(F)(F)F)c3c2OCS3)c1O` [Example 1-13], for which the “Pre-emergence action against VERPE” value in the experiment with Veronica persica (VERPE) [1] (320 g/ha) was 100%. Besides, the “Post-emergence action against SETVI” value in the experiment on Setaria viridis (SETVI) [2] is reported as 100%. Further, in the experiment on Viola tricolor (VIOTR) (320 g/ha), the “Pre-emergence action against VIOTR” value stood at 100%. Besides, the “Pre-emergence action against SETVI” value with Setaria viridis (SETVI) [3] (320 g/ha) was 100%. Also, the “Post-emergence action against STEME” value in the experiment on Stellaria media (STEME) [4] stood at 100%. In the experiment with Stellaria media (STEME) [5] (320 g/ha), the “Pre-emergence action against STEME” value came to 100%.

For the compound `Cn1ncc(C(=O)c2ccc(C(F)(F)F)c3c2OCCS3)c1O` [Example 1-15], the “Pre-emergence action against VERPE” value in the experiment on Veronica persica (VERPE) [1] (80 g/ha) was found to be 90%. The “Post-emergence action against SETVI” value with Setaria viridis (SETVI) [2] came out at 80%. In the experiment with Viola tricolor (VIOTR) (80 g/ha), the “Pre-emergence action against VIOTR” value turned out to be 100%. The “Pre-emergence action against SETVI” value in the experiment on Setaria viridis (SETVI) [3] (80 g/ha) is recorded as 100%. Further, the “Post-emergence action against STEME” value in the experiment with Stellaria media (STEME) [4] came out at 90%. Further, the “Pre-emergence action against STEME” value with Stellaria media (STEME) [5] (80 g/ha) turned out to be 100%.

With `Cn1ncc(C(=O)c2ccc(C(F)(F)F)c3c2OC[S+]3[O-])c1O` (stereo not shown) [Example 1-28], the “Pre-emergence action against VERPE” value in the experiment with Veronica persica (VERPE) [1] (320 g/ha) is recorded as 100%. Besides, the “Post-emergence action against SETVI” value with Setaria viridis (SETVI) [2] is listed as 90%. In addition, the “Pre-emergence action against VIOTR” value with Viola tricolor (VIOTR) (320 g/ha) is recorded as 100%. The “Pre-emergence action against SETVI” value in the experiment on Setaria viridis (SETVI) [3] (320 g/ha) turned out to be 100%. Besides, the “Post-emergence action against STEME” value with Stellaria media (STEME) [4] worked out at 90%. Besides, the “Post-emergence action against VERPE” value in the experiment on Veronica persica (VERPE) [6] is on record as 90%. Besides, the “Pre-emergence action against STEME” value in the experiment on Stellaria media (STEME) [5] (320 g/ha) was found to be 100%.

Consider `Cn1ncc(C(=O)c2ccc(C(F)(F)F)c3c2OCC[S+]3[O-])c1O` (stereo not shown) [Example 1-30], for which the “Post-emergence action against SETVI” value in the experiment with Setaria viridis (SETVI) [2] is 90%. Besides, the “Pre-emergence action against VIOTR” value in the experiment with Viola tricolor (VIOTR) (80 g/ha) turned out to be 100%. Besides, the “Pre-emergence action against SETVI” value with Setaria viridis (SETVI) [3] (80 g/ha) turned out to be 100%. Moreover, the “Pre-emergence action against STEME” value in the experiment on Stellaria media (STEME) [5] (80 g/ha) turned out to be 100%.

On to `CCn1ncc(C(=O)c2ccc(C(F)(F)F)c3c2OCC[S+]3[O-])c1O` (stereo not shown) [Example 1-35], for which the “Post-emergence action against SETVI” value in the experiment on Setaria viridis (SETVI) [2] turned out to be 100%. Moreover, in the experiment with Viola tricolor (VIOTR) (80 g/ha), the “Pre-emergence action against VIOTR” value was determined as 100%. Further, in the experiment with Setaria viridis (SETVI) [3] (80 g/ha), the “Pre-emergence action against SETVI” value was 100%. In addition, the “Post-emergence action against STEME” value in the experiment with Stellaria media (STEME) [4] stood at 90%. In addition, in the experiment on Stellaria media (STEME) [5] (80 g/ha), the “Pre-emergence action against STEME” value came to 100%.

As for `Cc1nn(C)c(O)c1C(=O)c1ccc(C(F)(F)F)c2c1OCC[S+]2[O-]` (stereo not shown) [Example 1-40], the “Post-emergence action against SETVI” value in the experiment on Setaria viridis (SETVI) [2] was 80%. In the experiment on Setaria viridis (SETVI) [3] (80 g/ha), the “Pre-emergence action against SETVI” value stood at 100%. Moreover, the “Post-emergence action against STEME” value with Stellaria media (STEME) [4] is given as 100%. The “Pre-emergence action against STEME” value in the experiment on Stellaria media (STEME) [5] (80 g/ha) worked out at 100%.

With `Cn1ncc(C(=O)c2ccc(C(F)(F)F)c3c2OCCS3(=O)=O)c1O` [Example 1-45], in the experiment on Veronica persica (VERPE) [1] (80 g/ha), the “Pre-emergence action against VERPE” value is on record as 100%. Also, the “Pre-emergence action against VIOTR” value in the experiment with Viola tricolor (VIOTR) (80 g/ha) came to 100%. Further, the “Pre-emergence action against SETVI” value with Setaria viridis (SETVI) [3] (80 g/ha) is 100%. Also, the “Post-emergence action against STEME” value in the experiment on Stellaria media (STEME) [4] amounted to 100%. In the experiment with Veronica persica (VERPE) [6], the “Post-emergence action against VERPE” value came to 90%. Further, in the experiment on Stellaria media (STEME) [5] (80 g/ha), the “Pre-emergence action against STEME” value stood at 100%.

Take `CCn1ncc(C(=O)c2ccc(C(F)(F)F)c3c2OCCS3(=O)=O)c1O` [Example 1-50]: the “Pre-emergence action against VERPE” value with Veronica persica (VERPE) [1] (80 g/ha) is 90%. In the experiment with Setaria viridis (SETVI) [2], the “Post-emergence action against SETVI” value was determined as 80%. Also, the “Pre-emergence action against SETVI” value in the experiment on Setaria viridis (SETVI) [3] (80 g/ha) is given as 100%. Moreover, in the experiment with Stellaria media (STEME) [4], the “Post-emergence action against STEME” value worked out at 80%. In the experiment with Stellaria media (STEME) [5] (80 g/ha), the “Pre-emergence action against STEME” value is given as 100%.

For `Cc1nn(C)c(O)c1C(=O)c1ccc(C(F)(F)F)c2c1OCCS2(=O)=O` [Example 1-55], in the experiment with Veronica persica (VERPE) [1] (80 g/ha), the “Pre-emergence action against VERPE” value was determined as 90%. For the same compound, the “Pre-emergence action against VIOTR” value in the experiment on Viola tricolor (VIOTR) (80 g/ha) stood at 90%. In addition, the “Post-emergence action against STEME” value with Stellaria media (STEME) [4] came to 90%. In addition, the “Pre-emergence action against STEME” value in the experiment on Stellaria media (STEME) [5] (80 g/ha) is on record as 100%.

As for `Cn1nc(C2CC2)c(C(=O)c2ccc(C(F)(F)F)c3c2OCC[S+]3[O-])c1O` (stereo not shown) [Example 1-116], the “Pre-emergence action against VERPE” value with Veronica persica (VERPE) [1] (80 g/ha) worked out at 80%. The “Post-emergence action against SETVI” value in the experiment on Setaria viridis (SETVI) [2] was 90%. Also, the “Pre-emergence action against VIOTR” value in the experiment on Viola tricolor (VIOTR) (80 g/ha) is reported as 100%. Further, the “Pre-emergence action against SETVI” value in the experiment on Setaria viridis (SETVI) [3] (80 g/ha) was 100%. Moreover, in the experiment with Stellaria media (STEME) [4], the “Post-emergence action against STEME” value worked out at 100%. Further, in the experiment with Stellaria media (STEME) [5] (80 g/ha), the “Pre-emergence action against STEME” value worked out at 100%.

As for `Cn1ncc(C(=O)c2ccc(C(F)(F)C(F)(F)F)c3c2OCS3)c1O` [Example 1-128], the “Post-emergence action against SETVI” value in the experiment with Setaria viridis (SETVI) [2] was found to be 90%. In the experiment on Viola tricolor (VIOTR) (80 g/ha), the “Pre-emergence action against VIOTR” value amounted to 100%. For the same compound, the “Pre-emergence action against SETVI” value with Setaria viridis (SETVI) [3] (80 g/ha) worked out at 100%. In the experiment on Stellaria media (STEME) [4], the “Post-emergence action against STEME” value is 80%. In addition, the “Pre-emergence action against STEME” value in the experiment with Stellaria media (STEME) [5] (80 g/ha) turned out to be 100%.
